Experimental data taken from article PMC12187842, “A novel molecule targeting neutrophil-mediated B-1a cell trogocytosis attenuates sepsis-induced acute lung injury” (Frontiers in Immunology, 2025).

Tested on: B-1a cells
Assay: B-1a cell numbers in pleural and peritoneal cavities of CLP mice by flow cytometry
Assay type: in vivo, mouse
Excerpt: Mice were anesthetized with 2% isoflurane in oxygen, and sepsis was induced via cecal ligation and puncture (CLP) ([26]). A 1-cm midline abdominal incision was made to expose the cecum, which was ligated 1-cm proximal to its end using a 4-0 silk suture. The cecum then was perforated with a single through-and-through puncture using a 22-gauge needle, positioned midway between the ligation and the tip of the cecum. A small amount of fecal material was gently extruded from the perforation sites to confirm the patency of the punctures, and the cecum was subsequently returned to the peritoneal cavity. Following abdominal closure, resuscitation was provided via subcutaneous (s.c.) injection of 500 µL normal saline. Postoperative analgesia was administered with a single dose of 0.1 mg/kg buprenorphine. […]
B-1a cell and neutrophil populations were analyzed by flow cytometry ([9], [11], [28]). […] After that, B-1a cells (CD45^+CD19^+B220^lo/-CD5^+CD23^-) ([6], [28]), and neutrophils (CD45^+Ly6G^+) were detected by flow cytometry. Fc block (Cat. No. 156604, BioLegend) was used to prevent nonspecific antibody binding and the cell viability was determined using a Zombie Aqua Fixable Viability Kit (BioLegend). […]

126-ELKNRTVSWFS-136 [Compound C11]
B-1a cell numbers in the pleural and peritoneal cavities (C11 10 mg/kg i.p. once immediately after CLP, 20 h after surgery, flow cytometry, n = 5-6/group, p < 0.05 vs. C11 (-)): effectively preserved
restoration of B-1a cell numbers in sepsis (discussion, blocking of Siglec-G/CD47 interaction by C11 in CLP mice): did not fully restore B-1a cell numbers
